How the values were obtained:
human 15-LO = target: T1, human 15-LO (Homo sapiens, UniProt P16050); test: Human Lysate 15-LO Assay (HUM15LO); type: biochemical; details: recombinant human 15-LO, 174 μM linoleic acid, 15 minutes at 4° C., 13-HODE quantitated
T1 construct: made in house; host or cells: Sf9 insect cells (baculovirus, Bac-to-Bac)
T1 sequence (P16050 1-662): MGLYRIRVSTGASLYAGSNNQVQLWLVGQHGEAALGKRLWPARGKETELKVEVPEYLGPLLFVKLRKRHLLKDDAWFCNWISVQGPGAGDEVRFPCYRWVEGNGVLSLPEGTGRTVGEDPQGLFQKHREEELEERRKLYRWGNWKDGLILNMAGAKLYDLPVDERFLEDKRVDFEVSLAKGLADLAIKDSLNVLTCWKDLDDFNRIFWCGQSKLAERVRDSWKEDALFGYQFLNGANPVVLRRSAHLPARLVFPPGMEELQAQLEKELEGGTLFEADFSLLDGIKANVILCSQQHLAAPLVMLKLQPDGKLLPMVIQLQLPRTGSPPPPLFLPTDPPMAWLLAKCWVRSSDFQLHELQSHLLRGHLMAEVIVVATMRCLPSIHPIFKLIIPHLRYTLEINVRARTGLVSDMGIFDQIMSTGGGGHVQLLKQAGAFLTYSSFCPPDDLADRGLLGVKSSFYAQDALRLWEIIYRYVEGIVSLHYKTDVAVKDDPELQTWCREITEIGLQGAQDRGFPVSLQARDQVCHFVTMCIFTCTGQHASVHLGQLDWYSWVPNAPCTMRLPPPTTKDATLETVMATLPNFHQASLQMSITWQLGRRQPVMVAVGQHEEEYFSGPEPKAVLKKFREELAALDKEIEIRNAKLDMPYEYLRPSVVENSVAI
Procedure: In the HUM15LO assay, a test compound of the present invention was incubated with 15-LO enzyme in the presence of the linoleic acid substrate. For example, a known amount of a test compound of the present invention, 100 μL of human 15-LO, and 174 μM linoleic acid in PBS containing 0.2% sodium cholate were incubated for 15 minutes at 4° C. The reaction was stopped with 100 μL of mobile phase and 10 μL of triethyl phosphite. […] 13-HODE was quantitated by comparing peak areas of individual samples with those from a standard curve generated using authentic 13-HODE. The test reaction is compared to a control reaction, which is identical to the test reaction except no test compound of the present invention is present Percent inhibition is calculated as the amount of 13-HODE produced by the test reaction divided by the amount of 13-HODE produced by the control reaction, expressed as a percent.
Human 15-LO was generated in a recombinant 15-lipoxygenase bacculovirus expression system, using Gibco/BRL/Life Technologies' Bac-to-Bac expression reagents; T4 DNA ligase, Kanamycin, Gentamicin, tetracycline, penicillin, streptomycin, Bluo-gal, IPTG, DH10Bac competent cells, SOC, LB medium, Sf-900 II SFM media, Sf9 insect cells, Cell Fectin, and EcoRI, BamHI and KpnI restriction enzymes.

[1] = target: T2, rabbit reticulocyte 15-LO (Oryctolagus cuniculus, UniProt P12530); test: Rabbit Reticulocyte 15-LO Assay (H15LO); type: biochemical; details: 2 U rabbit reticulocyte 15-LO, 174 μM linoleic acid, 15 minutes at 4° C., 13-HODE quantitated
T2 construct: 15-LO is obtained from phenylhydrazine-treated rabbits and purified according to the method of Rapoport; from tissue; host or cells: reticulocytes of phenylhydrazine-treated rabbits
T2 sequence (P12530 1-663): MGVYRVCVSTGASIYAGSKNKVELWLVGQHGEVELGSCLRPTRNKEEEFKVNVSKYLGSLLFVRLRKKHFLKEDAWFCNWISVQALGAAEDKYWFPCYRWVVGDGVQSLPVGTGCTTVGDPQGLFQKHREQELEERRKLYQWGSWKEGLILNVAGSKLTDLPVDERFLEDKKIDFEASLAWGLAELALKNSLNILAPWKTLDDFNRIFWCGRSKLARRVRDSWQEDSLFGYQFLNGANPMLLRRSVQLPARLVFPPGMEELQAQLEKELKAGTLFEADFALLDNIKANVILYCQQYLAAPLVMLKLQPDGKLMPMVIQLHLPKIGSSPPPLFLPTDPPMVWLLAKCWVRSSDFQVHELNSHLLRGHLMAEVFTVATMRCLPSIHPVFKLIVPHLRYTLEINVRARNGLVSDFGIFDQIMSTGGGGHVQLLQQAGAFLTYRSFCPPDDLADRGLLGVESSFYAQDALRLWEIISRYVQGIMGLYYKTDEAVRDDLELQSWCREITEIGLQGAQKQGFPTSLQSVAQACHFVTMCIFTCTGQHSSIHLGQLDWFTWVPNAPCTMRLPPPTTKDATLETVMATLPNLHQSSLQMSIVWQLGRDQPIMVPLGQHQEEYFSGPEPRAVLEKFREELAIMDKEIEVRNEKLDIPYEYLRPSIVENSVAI
Procedure: In the H15LO assay, a test compound was incubated with 15-LO enzyme in the presence of the linoleic acid substrate. For example, 2 units (U) of rabbit reticulocyte 15-LO and 174 μM linoleic acid were incubated with a known amount of a test compound of the present invention for 15 minutes at 4° C. The total reaction volume was 100 μL in phosphate buffer saline (PBS) containing 0.2% sodium cholate. The reaction was stopped with 100 μL of mobile phase and […] of triethyl phosphite. […] 13-HODE was quantitated by comparing peak areas of individual samples with those from a standard curve generated using authentic 13-HODE.
15-LO is obtained from phenylhydrazine-treated rabbits and purified according to the method of Rapoport (Rapoport et al., European Journal of Biochemistry, 1979;96:545-561).

Row | SMILES | IC50 (human 15-LO) [nM] | IC50 [1] [nM] | melting point [°C]
1 | CCCCCCCOC(=O)NS(=O)(=O)Nc1cc(-c2cc3cc(F)c(F)cc3[nH]2)ccc1OC [Example 30, Carbamic Acid, [[[5-(5,6-difluoro-IH-indo-2-yl)2-methoxyphenyl]amino]-sulfonyl]-heptyl ester] | 14 | 5 | 178 to 180
2 | COc1ccc(-c2cc3cc(F)c(F)cc3[nH]2)cc1NS(=O)(=O)NC(=O)OC/C=C/c1ccccc1 [Example 32, Carbamic Acid, [[[5-(5,6-difluoro-IH-indol-2-yl)-2-methoxyphenyl]amino]sulfonyl]-(2E)-3-phenyl-2-propenyl ester] | 16 | 6 | 149 to 152
3 | COc1ccc(C(=O)Nc2ccc(F)c(F)c2)cc1NS(=O)(=O)NC(=O)OC/C=C/c1ccccc1 [Example 33, Carbamic Acid, [[[5-[[(3,4-difluorophenyl)amino]carbonyl]-2-methoxyphenyl]amino]sulfonyl]-, (2E)-3-phenyl-2-propenyl ester] | 13 | 7 | 159 to 163
4 | COc1ccc(-c2cc3cc(F)c(F)cc3[nH]2)cc1NS(=O)(=O)NC(=O)OCc1ccccc1 [Example 36, Carbamic Acid, [[[5-(5,6-difluoro-IH-indol-2-yl)-methoxyphenyl]amino]-sulfonyl]-, Phenylmethyl ester] | 13 | 12 | 177 to 180
5 | COc1ccc(C(=O)Nc2ccc(F)c(F)c2)cc1NS(=O)(=O)NC(=O)OCc1ccccc1 [Example 42, Carbamic Acid, [[[5-[[(3,4-difluorophenyl)amino]carbonyl]-2-methoxyphenyl]amino]sulfonyl]-, Phenylmethyl Ester] | 76 | 19 | 173 to 176
6 | COC(=O)COC(=O)NS(=O)(=O)Nc1cc(C(=O)Nc2ccc(F)c(F)c2)ccc1OC [Example 44, Acetic Acid, [[[[[[5-[[(3,4-difluorophenyl)amino]carbonyl]-2-methoxyphenyl]-amino]sulfonyl]amino]carbonyl]oxy]-, Methyl ester] | 236 | – | 177 to 180
7 | COc1ccc(C(=O)Nc2ccc(F)c(F)c2)cc1NS(=O)(=O)NC(=O)OCCCO [Example 46, Carbamic Acid, [[[5-[[(3,4-difluorophenyl)amino]carbonyl]-2-methoxyphenyl]amino]sulfonyl]-, 3-hydroxypropyl ester] | 830 | – | 178 to 179
8 | CCOCCOC(=O)NS(=O)(=O)Nc1cc(-c2cc3cc(F)c(F)cc3[nH]2)ccc1OC [Example 47, Carbamic Acid, [[[5-(5,6-difluoro-IH-indol-2-yl)-2-methoxyphenyl]-amino]sulfonyl]-, 2-ethoxyethyl ester] | 54 | 44 | 178 to 181
9 | CCOCCOC(=O)NS(=O)(=O)Nc1cc(C(=O)Nc2ccc(F)c(F)c2)ccc1OC [Example 48, Carbamic Acid, [[[5[[(3,4-difluorophenyl)amino]carbonyl]-2-methoxyphenyl]amino]sulfonyl]-, 2-ethoxyethyl ester] | 306 | – | 179 to 182
10 | COc1ccc(-c2cc3cc(F)c(F)cc3[nH]2)cc1NS(=O)(=O)NC(=O)OCCCOCc1ccccc1 [Example 49, Carbamic Acid, [[[5-(5,6-difluoro-IH-indol-2-yl)-2-methoxyphenyl]-amino]sulfonyl]-3-(phenylmethoxy)propyl ester] | 15 | 5 | 166 to 168
11 | COc1ccc(C(=O)Nc2ccc(F)c(F)c2)cc1NS(=O)(=O)NC(=O)OCCCOCc1ccccc1 [Example 50, Carbamic Acid, [[[5-[[(3,4-difluorophenyl)amino]carbonyl]-2-methoxyphenyl]amino]sulfonyl]-, 3-(phenylmethoxy)propyl ester] | 65 | 18 | 178 to 179
12 | CCCCCCOC(=O)NS(=O)(=O)Nc1cc(-c2cc3cc(F)c(F)cc3[nH]2)ccc1OC [Example 51, Carbamic Acid, [[[5-(5,6-difluoro-IH-indo-2yl)-methoxyphenyl]amino]-sulfonyl]-hexyl ester] | 12 | 2 | 186 to 188
13 | CCCCCCOC(=O)NS(=O)(=O)Nc1cc(C(=O)Nc2ccc(F)c(F)c2)ccc1OC [Example 52, Carbamic Acid, [[[5-[[(3,4-difluorophenyl)amino]carbonyl]-2methoxyphenyl]amino]sulfonyl]-, Hexyl ester] | 39 | 5 | 175 to 178
14 | COc1ccc(-c2cc3cc(F)c(F)cc3[nH]2)cc1NS(N)(=O)=O [Example 54, Sulfamide, [5-(5,6-difluoro-IH-indol-2-yl)-2-methoxyphenyl]] | 12 | 10 | 177 to 180
15 | COc1ccc(C(=O)Nc2ccc(F)c(F)c2)cc1NS(=O)(=O)NC(=O)OCCN1C(=O)c2ccccc2C1=O [Example 56, Carbamic Acid, [[[5-[[(3,4-difluorophenyl)amino]carbonyl]-2-methoxyphenyl]amino]sulfonyl]-, 2-(1,3-dihydro-1,3-dioxo-2H-isoindol-2-yl)ethyl ester] | 341 | – | 203 to 205
16 | COc1ccc(C(=O)Nc2ccc(F)c(F)c2)cc1NS(=O)(=O)NC(=O)OC(C)(C)C [Example 58, Carbamic acid, [[[5-[[(3,4-difluorophenyl)amino]carbonyl]-2-methoxyphenyl]amino]sulfonyl]-, 1,1-dimethylethyl ester] | 751 | – | 193 to 194
17 | COc1ccc(C(=O)Nc2ccc(F)c(F)c2)cc1NS(=O)(=O)NC(=O)Nc1cccc(C(F)(F)F)c1 [Example 64, Benzamide, N-(3,4-difluorophenyl)methoxy-3-[[[[[[3-(trifluoromethyl)phenyl]amino]carbonyl]amino]sulfonyl]amino]] | 24 | – | 198 to 200
18 | COc1ccc(C(=O)Nc2ccc(F)c(F)c2)cc1NS(=O)(=O)NC(=O)Nc1ccc(Cl)cc1 [Example 68, Benzamide, 3-[[[[[(4-chlorophenyl)amino]carbonyl]amino]sulfonyl]amino]-N-(3,4-difluorophenyl)-4-methoxy] | 359 | – | 195 to 198

From patent US6906094B2, “1,2,4-tribsubstituted benzenes as inhibitors of 15-lipoxygenase” (Warner-Lambert Company, priority 2000, dated 2005)
